Source: patent US5714363A, “Deacetoxycephalosporin C hydroxylase” (priority 1992, dated 1998)
Where a name gives a salt, the structure may show the parent alone. Read-outs that look alike come from different tables or passages of the source.

Experiments:
DAOC hydroxylase [1] = molecular target: T1, DAOC hydroxylase (Streptomyces clavuligerus, UniProt P42220); assay: DAOC hydroxylase activity assay (DAC formation from DAOC, HPLC at 260 nm); assay type: biochemical; set-up: The highly purified native enzyme (92% purity) has a molecular weight of 35,000 dalton; endogenous in cells; host or cells: Streptomyces clavuligerus cells (native producer; NRRL 18491 is named as preferred strain), enzyme purified from cell-free extract; settings: for drop of maximum catalytic activity when not present: external ferrous ion, DTT and ascorbate both absent; for stimulation of catalytic activity: with Fe2+, α-ketoglutarate and O2; for replacement of ferrous ion for enzymatic activity: ion in place of Fe2+; for Relative Activity (%): no additive = 100; for reduction in enzyme activity: substitution of MOPS buffer at optimal pH
T1 sequence (P42220 1-318): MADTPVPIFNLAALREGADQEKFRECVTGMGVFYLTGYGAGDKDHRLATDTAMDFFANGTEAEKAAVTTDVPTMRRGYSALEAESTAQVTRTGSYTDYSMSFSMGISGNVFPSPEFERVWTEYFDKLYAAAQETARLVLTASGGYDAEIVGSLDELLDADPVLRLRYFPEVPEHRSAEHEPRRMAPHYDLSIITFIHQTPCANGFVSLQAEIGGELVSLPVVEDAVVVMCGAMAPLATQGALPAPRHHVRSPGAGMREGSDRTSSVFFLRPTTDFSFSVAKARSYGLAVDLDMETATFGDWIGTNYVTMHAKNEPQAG
Description: (§1) The activity of the DAOC hydroxylase is determined throughout the process by the following assay method. The hydroxylase activity was determined by monitoring DAC formation from DAOC at 260 nm with HPLC as described by Dotzlaf, J. E., and Yeh, W.-K. (1987) J. Bacteriol., 169, 1611-1618. […] The enzymatic reaction is initiated by adding the DAOC and the reaction is conducted for 20 minutes at 29° C. DAC formation is linear with reaction time for up to 40 minutes. One unit of enzyme activity is defined as the amount of hydroxylase required to cause formation of one μmol of DAC per minute from DAOC under the above-described assay conditions.
The specific activity of the hydroxylase is defined as units per milligram of protein.

DAOC hydroxylase [2] = molecular target: T1, DAOC hydroxylase; assay: Substrate specificity of purified DAOC hydroxylase; assay type: biochemical; set-up: The highly purified native enzyme (92% purity) has a molecular weight of 35,000 dalton; endogenous in cells; host or cells: Streptomyces clavuligerus cells (native producer; NRRL 18491 is named as preferred strain), enzyme purified from cell-free extract; settings: for Sp. Activity (mU/mg) / Relative Activity (%): compound as substrate; for Relative Activity (%): relative to DAOC = 100; for effectiveness as substrate: conditions for optimal catalysis; for Vmax (Percent Catalytic Activities, relative Vmax): relative to DAOC to DAC = 100, substrate of the reaction
Description: Several compounds were evaluated as substrates for the purified enzyme to determine its substrate specificity. The compounds evaluated and the results are shown below in TABLE 4. The results were obtained by EPLC analysis.
as §1

DAOC hydroxylase [3] = molecular target: T1, DAOC hydroxylase; assay: Stoichiometry of DAOC to DAC conversion; assay type: biochemical; set-up: The highly purified native enzyme (92% purity) has a molecular weight of 35,000 dalton; endogenous in cells; host or cells: Streptomyces clavuligerus cells (native producer; NRRL 18491 is named as preferred strain), enzyme purified from cell-free extract
Description: The stoichiometry of the hydroxylase conversion of DAOC to DAC was determined. The molar ratio for DAC-formation/DAOC-disappearance during a 3 h reaction remained in the range of 0.91-1.00 as shown by the plot in FIG. 2. The conversion of DAOC to DAC was only partially complete (58%) under the reaction conditions.

[4] = Description: The DAOC hydroxylase is recognized as unstable and, accordingly, was difficult to isolate and obtain in a high state of purity from cell-free extracts.
The process of this invention comprises the use of a hydroxylase stabilizing buffer which is used both in the preparation of crude cell-free extracts of the enzyme and during the isolation and purification thereof. The stabilizing buffer, referred to herein as buffer A, comprises 15 mM MOPS buffer, pH 7.3, containing 1 mM uric acid, 1 mM mannitol and 0.1M KCl.

DAOC hydroxylase [5] = molecular target: T1, DAOC hydroxylase; assay: Kinetic parameters of DAOC hydroxylase (Lineweaver-Burk)
Description: as §1, with “DAC formation is linear with reaction time for up to 40 minutes.” left out

[6] = substrate: CC1=C(C(=O)O)N2C(=O)[C@@H](NC(=O)CCC[C@@H](N)C(=O)O)[C@H]2SC1; assay: purified protein, by the assay type; settings: other: saturated concentration of the other substrate (300 μM DAOC or α-KG); pH 7.3; 29.0 °C
[7] = substrate: O=C(O)CCC(=O)C(=O)O; assay: purified protein, by the assay type; settings: other: saturated concentration of the other substrate (300 μM DAOC or α-KG); pH 7.3; 29.0 °C

O[C@H](CS)[C@H](O)CS (racemic) [DTT, dithiothreitol]
drop of maximum catalytic activity when not present (DAOC hydroxylase [1]): ~80%
stimulation of catalytic activity (DAOC hydroxylase [1]): stimulated

Nc1ncnc2c1ncn2[C@@H]1O[C@H](COP(=O)(O)OP(=O)(O)OP(=O)(O)O)[C@@H](O)[C@H]1O [ATP]
stimulation of catalytic activity (DAOC hydroxylase [1]): not

[Ca+2] [Ca^2+]
replacement of ferrous ion for enzymatic activity (DAOC hydroxylase [1]): not replaceable

CC1=C(C(=O)O)N2C(=O)[C@@H](NC(=O)CCC[C@@H](N)C(=O)O)[C@H]2CC1 [Carba-DAOC, 1carba(1-dethia)deacetoxycephalosporin C]
Sp. Activity (mU/mg) (DAOC hydroxylase [2]): 3.0 mU/mg
Relative Activity (%) (DAOC hydroxylase [2]): 1.9%
effectiveness as substrate (DAOC hydroxylase [2]): did not serve as effective substrates

[Co+2] [Co^2+]
replacement of ferrous ion for enzymatic activity (DAOC hydroxylase [1]): not replaceable

[Cu+2] [Cu^2+]
replacement of ferrous ion for enzymatic activity (DAOC hydroxylase [1]): not replaceable

CC1=C(C(=O)O)N2C(=O)[C@@H](NC(=O)CCC[C@@H](N)C(=O)O)[C@H]2SC1 [DAOC, deacetoxycephalosporin C]
conversion of DAOC to DAC (DAOC hydroxylase [3]; 3 h reaction): 58%
molar ratio DAC-formation/DAOC-disappearance (DAOC hydroxylase [3]; during a 3 h reaction): 0.91-1.00
Sp. Activity (mU/mg) (DAOC hydroxylase [2]): 159.2 mU/mg
Relative Activity (%) (DAOC hydroxylase [2]): 100%
Vmax (Percent Catalytic Activities, relative Vmax) (DAOC hydroxylase [2]): 100%

O=C(O)c1cc(SSc2ccc([N+](=O)[O-])c(C(=O)O)c2)ccc1[N+](=O)[O-] [DTNB, 5,5'-dithiobis2-nitrobenzoic acid]
Relative Activity (%) (DAOC hydroxylase [1]; additive 1 mM): 0%

O=C(O)CN(CCN(CC(=O)O)CC(=O)O)CC(=O)O [EDTA, ethylenediamine tetraacetic acid]
Relative Activity (%) (DAOC hydroxylase [1]; additive 0.05 mM): 16%
Relative Activity (%) (DAOC hydroxylase [1]; additive 0.5 mM): 0%

C=C1CS[C@@H]2[C@H](NC(=O)CCC[C@@H](N)C(=O)O)C(=O)N2C1C(=O)O (stereo partly drawn) [EMCC, 7β-(D-α-aminoadipamido)-3-exomethylenecepham-4-carboxylic acid]
Sp. Activity (mU/mg) (DAOC hydroxylase [2]): 58.1 mU/mg
Relative Activity (%) (DAOC hydroxylase [2]): 36.5%
effectiveness as substrate (DAOC hydroxylase [2]): fairly efficient
Vmax (Percent Catalytic Activities, relative Vmax) (DAOC hydroxylase [2]): 37%

O=S(=O)(O)CCN1CCN(CCO)CC1 [HEPES buffer]
reduction in enzyme activity (DAOC hydroxylase [1]): 7%

O=C(O)CI [Iodoacetic acid]
Relative Activity (%) (DAOC hydroxylase [1]; additive 1 mM): 59%

CC1=C(C(=O)O)N2C(=O)[C@@H](NC(=O)CCC[C@H](N)C(=O)O)[C@H]2SC1 [Iso-DAOC, 7β-(Lα-aminoadipamido)-3-methyl-3-cephem-4-carboxylic acid]
Sp. Activity (mU/mg) (DAOC hydroxylase [2]): 1.3 mU/mg
Relative Activity (%) (DAOC hydroxylase [2]): 0.8%
effectiveness as substrate (DAOC hydroxylase [2]): did not serve as effective substrates

[Mg+2] [Mg^2+]
replacement of ferrous ion for enzymatic activity (DAOC hydroxylase [1]): not replaceable

[Mn+2] [Mn^2+]
replacement of ferrous ion for enzymatic activity (DAOC hydroxylase [1]): not replaceable

CCN1C(=O)C=CC1=O [NEM, Nethylmaleimide]
Relative Activity (%) (DAOC hydroxylase [1]; additive 1 mM): 24%

[Ni+2] [Ni^2+]
replacement of ferrous ion for enzymatic activity (DAOC hydroxylase [1]): not replaceable

CC1(C)S[C@@H]2[C@H](NC(=O)CCC[C@@H](N)C(=O)O)C(=O)N2[C@H]1C(=O)O [Penicillin N, penicillin N]
effectiveness as substrate (DAOC hydroxylase [2]): weak catalytic activity
Vmax (Percent Catalytic Activities, relative Vmax) (DAOC hydroxylase [2]): 1.4%

N[C@@H](CCC(=O)N[C@@H](CS)C(=O)NCC(=O)O)C(=O)O [Reduced glutathione]
stimulation of catalytic activity (DAOC hydroxylase [1]): as effective

NC(CO)(CO)CO [Tris-HCl buffer]
reduction in enzyme activity (DAOC hydroxylase [1]): 27%

[Zn+2] [Zn^2+]
replacement of ferrous ion for enzymatic activity (DAOC hydroxylase [1]): not replaceable

O=C1O[C@H]([C@@H](O)CO)C(O)=C1O [ascorbate]
drop of maximum catalytic activity when not present (DAOC hydroxylase [1]): ~80%

CCO [ethyl alcohol]
effect on the stability of the hydroxylase [4]: no effect

[Fe+3] [ferric ion]
replacement of ferrous ion for enzymatic activity (DAOC hydroxylase [1]): can replace ferrous ion with retention of maximum activity

[Fe+2] [ferrous ion]
enzymatic activity without external Fe2+ (DAOC hydroxylase [1]; no external Fe2+): 2 % of maximum
Ka of the hydroxylase (DAOC hydroxylase [5]; activator ferrous ion): 20 µM

c1cnc2c(c1)ccc1cccnc12 [o-Phenanthroline]
Relative Activity (%) (DAOC hydroxylase [1]; additive 0.05 mM): 81%
Relative Activity (%) (DAOC hydroxylase [1]; additive 0.5 mM): 0%

O=S(=O)(F)Cc1ccccc1 [phenylmethylsulfonyl fluoride]
effect on the stability of the hydroxylase ([4]; added during preparation of the extracts): no effect

[K+] [potassium]
replacement of ferrous ion for enzymatic activity (DAOC hydroxylase [1]): not replaceable

[Na+] [sodium]
replacement of ferrous ion for enzymatic activity (DAOC hydroxylase [1]): not replaceable

OCCS [β-Mercaptoethanol]
stimulation of catalytic activity (DAOC hydroxylase [1]): little stimulating effect

B1: DAOC hydroxylase (Streptomyces clavuligerus) (protein)
chain: MADTPVPIFNLAALREGADQEKFRECVTGMGVFYLTGYGAGDKDHRLATDTAMDFFANGTEAEKAAVTTDVPTMRRGYSALEAESTAQVTRTGSYTDYSMSFSMGISGNVFPSPEFERVWTEYFDKLYAAAQETARLVLTASGGYDAEIVGSLDELLDADPVLRLRYFPEVPEHRSAEHEPRRMAPHYDLSIITFIHQTPCANGFVSLQAEIGGELVSLPVVEDAVVVMCGAMAPLATQGALPAPRHHVRSPGAGMREGSDRTSSVFFLRPTTDFSFSVAKARSYGLAVDLDMETATFGDWIGTNYVTMHAKNEPQAG
Km [6]: 50 µM
Km [7]: 10 µM

B2: DAOC hydroxylase: enzyme from Streptomyces clavuligerus converting DAOC to DAC; monomeric, about 35,000 dalton (protein, UniProt P42220 2-318, looked up)
Deacetoxycephalosporin C …: ADTPVPIFNLAALREGADQEKFRECVTGMGVFYLTGYGAGDKDHRLATDTAMDFFANGTEAEKAAVTTDVPTMRRGYSALEAESTAQVTRTGSYTDYSMSFSMGISGNVFPSPEFERVWTEYFDKLYAAAQETARLVLTASGGYDAEIVGSLDELLDADPVLRLRYFPEVPEHRSAEHEPRRMAPHYDLSIITFIHQTPCANGFVSLQAEIGGELVSLPVVEDAVVVMCGAMAPLATQGALPAPRHHVRSPGAGMREGSDRTSSVFFLRPTTDFSFSVAKARSYGLAVDLDMETATFGDWIGTNYVTMHAKNEPQAG
half-life ([4]; crude extract in stabilizing buffer A (15 mM MOPS pH 7.3, 1 mM uric acid, 1 mM mannitol, 0.1M KCl)): 72 h
half-life ([4]; crude extract, 4° C., 15 mM Tris-HCl buffer, pH 7.5): 12 h
improvement of half-life over Tris-HCl buffer ([4]; stabilizing buffer A): 6 fold
Vmax of the hydroxylase (DAOC hydroxylase [5]; DAOC to DAC, optimal reaction conditions): 0.45 μM of DAC formed per minute per milligram of protein
